Assay results taken from ChEMBL document CHEMBL5356977, “Exploration of macrocyclic peptide binders to the extracellular CRD domain of human receptor tyrosine kinase-like orphan receptor 1 (ROR1)” (Bioorg Med Chem Lett, 2024).
Blank lines part the entries; values can stand above or below the molecule they belong to. Calls of active or inactive are those of the source. The calls are words filed in the database; no cut-off is given here. Bridge positions count the residues as written; N and C are the ends. Square brackets hold non-standard residues; d marks the D form. Peptide text beside a SMILES is read from it. * marks the point of attachment. X2 = CCCN(C(=O)[C@@H](NC(=O)[C@H]1CCCCN1C)[C@@H](C)CC)[C@H](C[C@@H](OC(C)=O)c1nc(C(=O)N[C@@H](Cc2ccc(NC(=O)[C@H](CCCNC(N)=O)NC(=O)[C@@H](NC(=O)CCCCCN3C(=O)CC(*)C3=O)C(C)C)cc2)C[C@H](C)C(=O)O)cs1)C(C)C; Bip = N[C@@H](Cc1ccc(-c2ccccc2)cc1)C(=O)O; NMeF = CN[C@@H](Cc1ccccc1)C(=O)O; Sar = CNCC(=O)O

What was measured:
ASPC1 = assay: Antiproliferative activity in human ASPC1 cells; type: functional, cell-based
786-0 = assay: Antiproliferative activity in human 786-0 cells; type: functional, cell-based
HEK293 = assay: Antiproliferative activity in HEK293 cells harbouring ROR1; type: toxicity, cell-based; conditions: Homo sapiens
JeKo-1 = assay: Antiproliferative activity in human JeKo-1 cells; type: functional, cell-based
[1] = target: T1, Inactive tyrosine-protein kinase transmembrane receptor ROR1 (Homo sapiens, UniProt Q01973); assay: Binding affinity to human ROR1 expressed in HEK293 cells by cell based assay
[2] = target: Tyrosine-protein kinase transmembrane receptor ROR2 (Homo sapiens, UniProt Q01974); assay: Binding affinity to full length human His-tagged ROR2 (943 residues ) assessed as dissociation constant by SPR analysis
[3] = target: T1, Inactive tyrosine-protein kinase transmembrane receptor ROR1; assay: Binding affinity to human ROR1 harbouring CRD domain at 100 nM relative to control
[4] = Stability in mouse serum assessed as half life; type: ADME, cell-free
[5] = target: T1, Inactive tyrosine-protein kinase transmembrane receptor ROR1; assay: Induction of ROR1 internalization in human 786-0 cells at 4 to 37 degreeC; type: cell-based
[6] = target: T1, Inactive tyrosine-protein kinase transmembrane receptor ROR1; assay: Binding affinity to full length human His-tagged ROR1 (937 residues ) assessed as dissociation constant by SPR analysis
[7] = target: T1, Inactive tyrosine-protein kinase transmembrane receptor ROR1; assay: Binding affinity to human ROR1 harbouring IGt2 domain at 100 nM relative to control
[8] = Stability in human serum assessed as half life; type: ADME, cell-free
[9] = […] stability in mouse serum assessed as half life; type: ADME, cell-free
[10] = target: T1, Inactive tyrosine-protein kinase transmembrane receptor ROR1; assay: Induction of ROR1 internalization in human MDA-MB-231; type: cell-based
[11] = target: T1, Inactive tyrosine-protein kinase transmembrane receptor ROR1; assay: Induction of ROR1 internalization in human 786-0; type: cell-based

T1 sequence (Q01973 whole entry): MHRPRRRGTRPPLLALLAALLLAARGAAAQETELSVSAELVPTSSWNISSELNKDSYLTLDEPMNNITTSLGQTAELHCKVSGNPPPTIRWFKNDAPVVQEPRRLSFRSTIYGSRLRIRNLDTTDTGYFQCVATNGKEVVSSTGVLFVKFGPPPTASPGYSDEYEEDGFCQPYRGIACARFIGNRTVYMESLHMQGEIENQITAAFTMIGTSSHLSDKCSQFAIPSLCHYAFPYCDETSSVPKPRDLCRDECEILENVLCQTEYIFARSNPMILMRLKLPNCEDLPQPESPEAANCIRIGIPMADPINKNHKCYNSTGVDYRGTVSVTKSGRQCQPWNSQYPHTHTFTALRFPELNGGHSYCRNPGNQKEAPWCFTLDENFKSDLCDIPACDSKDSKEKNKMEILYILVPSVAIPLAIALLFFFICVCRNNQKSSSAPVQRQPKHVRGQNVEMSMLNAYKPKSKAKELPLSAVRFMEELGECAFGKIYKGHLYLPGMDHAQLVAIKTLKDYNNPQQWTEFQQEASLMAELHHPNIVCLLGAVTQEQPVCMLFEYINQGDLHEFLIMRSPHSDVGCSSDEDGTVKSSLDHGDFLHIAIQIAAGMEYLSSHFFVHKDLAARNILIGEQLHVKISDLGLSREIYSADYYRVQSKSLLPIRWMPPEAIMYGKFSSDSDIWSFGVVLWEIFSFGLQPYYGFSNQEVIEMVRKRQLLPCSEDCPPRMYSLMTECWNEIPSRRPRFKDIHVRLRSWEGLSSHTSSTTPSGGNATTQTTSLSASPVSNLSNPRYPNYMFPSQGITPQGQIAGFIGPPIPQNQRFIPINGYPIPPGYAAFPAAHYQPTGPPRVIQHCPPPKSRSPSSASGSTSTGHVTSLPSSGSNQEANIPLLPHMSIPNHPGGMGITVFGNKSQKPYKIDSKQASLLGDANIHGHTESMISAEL
Tyrosine-protein kinase transmembrane receptor ROR2, sequence (Q01974 whole entry, the tested form may be a part): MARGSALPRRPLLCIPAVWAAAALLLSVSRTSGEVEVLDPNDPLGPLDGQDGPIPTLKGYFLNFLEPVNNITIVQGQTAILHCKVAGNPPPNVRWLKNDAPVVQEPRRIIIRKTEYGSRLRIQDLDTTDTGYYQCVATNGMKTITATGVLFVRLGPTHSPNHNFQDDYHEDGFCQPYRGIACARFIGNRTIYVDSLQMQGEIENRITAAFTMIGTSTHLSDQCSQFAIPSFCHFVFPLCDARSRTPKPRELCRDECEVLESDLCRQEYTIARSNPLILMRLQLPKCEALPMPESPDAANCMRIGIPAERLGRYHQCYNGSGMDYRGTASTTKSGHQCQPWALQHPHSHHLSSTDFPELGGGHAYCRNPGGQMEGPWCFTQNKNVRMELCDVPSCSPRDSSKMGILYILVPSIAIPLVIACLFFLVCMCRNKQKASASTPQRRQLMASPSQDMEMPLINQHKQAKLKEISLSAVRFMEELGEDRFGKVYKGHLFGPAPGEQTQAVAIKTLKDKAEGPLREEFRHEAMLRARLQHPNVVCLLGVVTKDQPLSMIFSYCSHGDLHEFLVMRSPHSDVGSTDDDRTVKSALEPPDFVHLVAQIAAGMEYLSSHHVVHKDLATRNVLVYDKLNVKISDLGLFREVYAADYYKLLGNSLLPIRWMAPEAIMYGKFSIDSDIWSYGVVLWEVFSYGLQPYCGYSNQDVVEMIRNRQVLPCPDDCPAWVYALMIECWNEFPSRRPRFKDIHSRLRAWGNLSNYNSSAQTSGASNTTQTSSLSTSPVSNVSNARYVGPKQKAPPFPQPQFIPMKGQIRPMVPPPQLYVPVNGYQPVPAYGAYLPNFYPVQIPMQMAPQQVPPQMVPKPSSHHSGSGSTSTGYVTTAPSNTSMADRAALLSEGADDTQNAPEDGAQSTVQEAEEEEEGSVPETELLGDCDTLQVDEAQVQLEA

IC50 [1]: 8.6 nM
SMILES: CC(C)C[C@@H]1NC(=O)[C@H](Cc2ccc(O)cc2)NC(=O)[C@H](Cc2ccccc2)NC(=O)CSC[C@@H](C(=O)NCC(N)=O)NC(=O)[C@H](CC(C)C)NC(=O)[C@H](Cc2ccccc2)N(C)C(=O)[C@H](Cc2ccc(O)cc2)NC(=O)[C@H](Cc2c[nH]c3ccccc23)NC(=O)CNC(=O)[C@H](Cc2ccc(O)cc2)NC(=O)[C@H](Cc2ccc(O)cc2)NC(=O)[C@H](C(C)C)NC1=O ({CH2CO}-FYLVYYGWY[NMeF]LCG-NH2; thioether N-12)

IC50 [1]: 5.2 nM
SMILES: CC(C)C[C@@H]1NC(=O)[C@H](Cc2ccccc2)N(C)C(=O)[C@H](Cc2ccc(O)cc2)NC(=O)[C@H](Cc2c[nH]c3ccccc23)NC(=O)CNC(=O)[C@H](CO)NC(=O)[C@H](Cc2ccc(O)cc2)NC(=O)[C@H](C(C)C)NC(=O)[C@@H]2CCCN2C(=O)[C@H](Cc2ccc(O)cc2)NC(=O)[C@H](Cc2ccccc2)NC(=O)CSC[C@@H](C(=O)NCC(N)=O)NC1=O ({CH2CO}-FYPVYSGWY[NMeF]LCG-NH2; thioether N-12)

IC50 [1]: 6.3 nM
SMILES: CC(C)C[C@@H]1NC(=O)[C@H](Cc2ccccc2)N(C)C(=O)[C@H](Cc2ccc(O)cc2)NC(=O)[C@H](Cc2c[nH]c3ccccc23)NC(=O)CNC(=O)[C@H](CO)NC(=O)[C@H](Cc2ccc(O)cc2)NC(=O)[C@H](C(C)C)NC(=O)[C@H](CCCNC(=N)N)NC(=O)[C@H](Cc2ccc(O)cc2)NC(=O)[C@H](Cc2ccccc2)NC(=O)CSC[C@@H](C(=O)NCC(N)=O)NC1=O ({CH2CO}-FYRVYSGWY[NMeF]LCG-NH2; thioether N-12)

The remaining lines, values behind:

SMILES: CC(C)C[C@@H]1NC(=O)[C@H](Cc2ccc(O)cc2)NC(=O)[C@H](Cc2ccccc2)NC(=O)CSC[C@@H](C(=O)NCC(=O)NCC(=O)NCC(=O)NCC(=O)O)NC(=O)[C@H](CC(C)C)NC(=O)[C@H](Cc2ccccc2)N(C)C(=O)[C@H](Cc2ccc(O)cc2)NC(=O)[C@H](Cc2c[nH]c3ccccc23)NC(=O)CNC(=O)[C@H](CO)NC(=O)[C@H](Cc2ccc(O)cc2)NC(=O)[C@H](C(C)C)NC1=O ({CH2CO}-FYLVYSGWY[NMeF]LCGGGG-OH; thioether N-12)
EC50 (ASPC1): 76.6 nM
EC50 (786-0): 63.7 nM
EC50 (HEK293): 55.3 nM
EC50 (JeKo-1): 89 nM

SMILES: CCCN(C(=O)[C@@H](NC(=O)[C@H]1CCCCN1C)[C@@H](C)CC)[C@H](C[C@@H](OC(C)=O)c1nc(C(=O)N[C@@H](Cc2ccc(NC(=O)[C@H](CCCNC(N)=O)NC(=O)[C@@H](NC(=O)CCCCCN3C(=O)CC(SC[C@H](NC(=O)CNC(=O)CNC(=O)CNC(=O)CNC(=O)[C@@H]4CSCC(=O)N[C@@H](Cc5ccccc5)C(=O)N[C@@H](Cc5ccc(O)cc5)C(=O)N[C@@H](CC(C)C)C(=O)N[C@@H](C(C)C)C(=O)N[C@@H](Cc5ccc(O)cc5)C(=O)N[C@@H](CO)C(=O)NCC(=O)N[C@@H](Cc5c[nH]c6ccccc56)C(=O)N[C@@H](Cc5ccc(O)cc5)C(=O)N(C)[C@@H](Cc5ccccc5)C(=O)N[C@@H](CC(C)C)C(=O)N4)C(N)=O)C3=O)C(C)C)cc2)C[C@H](C)C(=O)O)cs1)C(C)C (stereo partly drawn) ({CH2CO}-FYLVYSGWY[NMeF]LCGGGGC(X2)-NH2; thioether N-12)
EC50 (ASPC1): 145 nM
EC50 (786-0): 154 nM
EC50 (HEK293): 27.3 nM
EC50 (JeKo-1): 334 nM

SMILES: CN1CC(=O)N[C@@H](CO)C(=O)N[C@@H](Cc2ccc(-c3ccccc3)cc2)C(=O)NCC(=O)N[C@@H](CCCNC(=N)N)C(=O)N[C@@H](CCCNC(=N)N)C(=O)N[C@@H](CCCNC(=N)N)C(=O)NCC(=O)N[C@H](C(=O)NCC(N)=O)CSCC(=O)N[C@@H](Cc2ccccc2)C(=O)N[C@@H](Cc2ccc(O)cc2)C1=O ({CH2CO}-FY[Sar]S[Bip]GRRRGCG-NH2; thioether N-11)
Kd [2]: > 100 nM
Activity [3]: 114%
half-life [4]: 0.517 h
Activity [5]: inactive
Kd [6]: 3 nM
Activity [7]: 125%
half-life [8]: 1.1 h
half-life [9]: 24 h

SMILES: CC(C)C[C@@H]1NC(=O)[C@H](Cc2ccc(O)cc2)NC(=O)[C@H](Cc2c[nH]c3ccccc23)NC(=O)CSC[C@@H](C(=O)NCC(N)=O)NC(=O)[C@H](CC(C)C)NC(=O)[C@H](Cc2ccccc2)N(C)C(=O)[C@H](Cc2ccc(O)cc2)NC(=O)[C@H](Cc2c[nH]c3ccccc23)NC(=O)CNC(=O)[C@H](CO)NC(=O)[C@H](Cc2ccc(O)cc2)NC(=O)[C@H](C(C)C)NC1=O ({CH2CO}-WYLVYSGWY[NMeF]LCG-NH2; thioether N-12)
Activity [10]: Active
Activity [11]: Active
IC50 [1]: 2.2 nM

SMILES: CC[C@H](C)[C@H](NC(=O)[C@H]1CCCCN1C)C(=O)N(COC(=O)CC(C)C)[C@H](C[C@@H](OC(C)=O)c1nc(C(=O)N[C@@H](Cc2ccc(C)cc2)C[C@H](C)C(=O)O)cs1)C(C)C [TUBULYSIN]
EC50 (786-0): 0.57 nM
